Data on 32 compounds can be found in US20210323914A1, “IONIZABLE CATIONIC LIPID FOR RNA DELIVERY” (Arcturus Therapeutics, Inc., priority 2017, published 2021).

Series [1] in a line: Measured pKa of cationic lipids in LNP or micellar formulations by TNS fluorescence. It is filed as physicochemical. The conditions noted are these: measured in the Formulation milieu, TNS fluorescence, 1 mM total lipids. As for the experimental part:
pKa of cationic lipids in LNP or micellar Formulations were measured by the procedure of Jayaraman, 2012, Angew. Chem. Int. Ed., 51:8529-33, hereby incorporated by reference. Lipid micelles or LNPs are diluted to 1 mM total lipids in universal buffer with a pH range between 3 and 12 in presence of 0.06 mg/mL 6-(p-toluidino)-2-naphthalenesulfonic acid sodium salt (TNS) reagent (Sigma Aldrich), a pH sensitive fluorescence probe. The anionic TNS molecule fluoresces when associated with the surface of positively charged membranes but is not fluorescent when free in solution, allowing measurement of pKa. The TNS signal is measured on a spectral plate reader. The TNS signal is plotted as function of the pH and analyzed using a non-linear (Boltzman) to determine the pKa.
Reagents used in the assay include • Hepes free acid, CAS: 7365-45-9 (VWR, 0511-1KG or equivalent) • MES, HPLC grade: (Sigma 105228-100G or equivalent) • Ammonium acetate, HPLC grade: (Sigma 90335-100 mL or equivalent) • Sodium chloride, HPLC grade (VWR EM-MX0475-1 or equivalent) • TNS (Sigma-Aldrich T9792-250 mg or equivalent) • Hydrochloric acid • DMSO • DPBS without calcium and magnesium (GE, SH30028.02 or equivalent) • H2O, HPLC grade (OmniSolv, WX0004-1 or equivalent)
To prepare a stock solution of Universal Buffer (UB) in a polystyrene sterile storage bottle, prepare 1 L using the following table.
Reagents are sterile filtered through a 0.2 μm filter. Preparation of UB solution includes adding 5 mL of 1 M HCl to a 350 mL stock solution.
To prepare a pH ladder, centrifuge tubes (50 mL) with 20 mL UB buffer are used. (pH ˜3) and differing amounts of 2 N NaOH. Stock solutions of TNS at 1 mg/mL in DMSO. 60 μL of TNS at 1 mg/mL is added to 940 μL water to reach a working solution concentration of 0.06 mg/mL. Five test samples, 1 mL of LNP sample in PBS at 1 mM total lipid, and 1 reference sample are analyzed per plate. Samples at different pH values are prepared in wells in which 25 μL of 0.06 mg/mL TNS is added. 15 μL of test samples is added per well. The microplate is incubated for 15 minutes at room temperature in the dark. TNS template can be used to format data from the plate reader. Perform non-linear (Boltzman) regression analysis of the samples in Origin Pro 8 or equivalent software.

A further series relates to Factor VII. The series is described as follows: In vivo mouse Factor VII siRNA knockdown with lipid nanoparticles. Also on record: species or system C57BL/6 mice. The conditions noted are these: intravenous, mice, 48 hours. From the text: The first pair of numbers denotes the number of carbons in the ester, including the carbonyl, for L1 and L2; the pair of numbers in the parenthesis denotes the number of carbons in each branch of the branched alkyl, R1 or if R2 is also branched, R1/R2 (an asterisk denotes a double bond); the number of carbons in R3 is given; and the last line denotes the substitution for R4 and R5. The ATX number is given for reference herein. Calculated Log D values (c-Log D) and calculated pKa (c-pKa) values are given, as well as measured pKa in parenthesis (measured in the Formulation milieu). The c-Log D and c-pKa values are generated by ACD Labs Structure Designer v12.0. Bioactivity is percentage in vivo Factor VII knockdown at a dose of 0.03 mg/kg, unless otherwise designated.
Using a liver-directed in vivo screen of the liposome libraries, a series of compounds were tested that facilitate high levels of siRNA mediated gene silencing in hepatocytes, the cells comprising the liver parenchyma. Factor VII, a blood-clotting factor, is a suitable target gene for assaying functional siRNA delivery to liver. Because this factor is produced specifically in hepatocytes, gene silencing indicates successful delivery to parenchyma, as opposed to delivery to the cells of the reticulo-endothelial system (e.g., Kupffer cells). Furthermore, Factor VII is a secreted protein that can be readily measured in serum, obviating the need to euthanize animals. Silencing at the mRNA level can be readily determined by measuring levels of protein. This is because the protein's short half-life (2-5 hour). Compositions with siRNA directed to […] were Formulated with the lipid, and comparator sample phosphate-buffered saline (PBS). Female C57BL/6 mice (6-8 week old) were used for FVII siRNA knockdown (KD) experiments.
All Formulations were administered intravenously via tail vein injection at a dose of 0.03 and 0.1 mg/kg at a dosing volume of […]. Terminal blood collection was performed via cardiac puncture under 2% isoflurane at 48 hours after Formulation injections. Blood was collected into 0.109 M citrate buffer tube and processed by centrifugation at 1200 G for 10 min. Plasma was collected and Factor VII protein levels were analyzed by chromogenic assay (Biophen FVII, Aniara Corporation). A standard curve was constructed using samples from PBS-injected mice and relative Factor VII expression was determined by comparing treated groups to untreated PBS control.

For the compound `CCCCCC(CCCCC)OC(=O)CN(CC(=O)OC(CCCCC)CCCCC)C(=O)SCCCN(CC)CC`, in series [1], the pKa – broadly, the pH at which an ionisable group is half protonated – came out at 6.21.
On to `CCCCCC/C=C\COC(=O)CN(CC(=O)OC(CCCCCCC)CCCCCCC)C(=O)SCCCN(C)C`, for which the pKa in series [1] turned out to be 6.44. The “Bioactivity: percentage in vivo Factor VII knockdown” value (“Bioactivity: percentage” below) in the series on Factor VII (dose 0.03 mg/kg) amounted to 62 percentage.
The like results for `CCCCCCCC(CCCCCCC)OC(=O)CN(CC(=O)OC(CCCCCCC)CCCCCCC)C(=O)SCCCN(C)C` were, in that order, 5.68 and 25 percentage.
For `CCCCCC/C=C\COC(=O)CN(CC(=O)OC(CCCCCCCC)CCCCCCCC)C(=O)SCCCN(C)C`, in that order: 6.38 and 97 percentage.
For `CCCCCC/C=C\COC(=O)CN(CC(=O)OC(CCCCCCCC)CCCCCCCC)C(=O)SCCCN(CC)CC`, in that order: 6.2 and 82 percentage.
`CCCCCC/C=C\COC(=O)CN(CC(=O)OC(CCCCCCCC)CCCCCCCC)C(=O)SCCCCN(C)C` registered a pKa in series [1] of 6.69. Also, the “Bioactivity: percentage” value in the series on Factor VII (dose 0.03 mg/kg) is given as 90 percentage.
For `CCCCCC/C=C\COC(=O)CN(CC(=O)OC(CCCCCCCC)CCCCCCCC)C(=O)SCCCCN(CC)CC`, in that order: 6.9 and 97 percentage.
Compound `CCCCCC/C=C\COC(=O)CCCN(CC(=O)OC(CCCCCCC)CCCCCCC)C(=O)SCCN(C)C` registered a pKa in series [1] of 5.83. The “Bioactivity: percentage” value with Factor VII (dose 0.03 mg/kg) is on record as 40 percentage.
The like results for `CCCCCC/C=C\COC(=O)CCCN(CC(=O)OC(CCCCCCC)CCCCCCC)C(=O)SCCCN(C)C` were, in that order, 6.85 and 53 percentage.
For the compound `CCCCCC/C=C\COC(=O)CCCN(CC(=O)OC(CCCCCCC)CCCCCCC)C(=O)SCCCN(CC)CC`, the pKa in series [1] is 6.53. Further, the “Bioactivity: percentage” value in the series on Factor VII (dose 0.03 mg/kg) is 70 percentage.
For `CCC/C=C/CCC(CC/C=C/CCC)OC(=O)CCCN(CCCC(=O)OC/C=C\CCCCCC)C(=O)SCCN(C)C`, in that order: 6 and 72 percentage.
The like results for `CCCCCC/C=C\COC(=O)CCCN(CCCC(=O)OC(CCCCCCC)CCCCCCC)C(=O)SCCCN(CC)CC` were, in that order, 6.66 and 96 percentage.
For `CCCCCC/C=C\COC(=O)CCCN(CCCC(=O)OC(CCCCCCC)CCCCCCCC)C(=O)SCCCN(CC)CC` (centres unmarked), in that order: 6.65 and 93 percentage.
In series [1], `CCCCCC/C=C\COC(=O)CCCN(CCCC(=O)OC(CCCCCCCC)CCCCCCCC)C(=O)SCCCN(CC)CC` gave a pKa of 6.58. The “Bioactivity: percentage” value with Factor VII (dose 0.03 mg/kg) is on record as 75 percentage.
With `CCCCCC(CCCCC)OC(=O)CCCN(CCCC(=O)OC(CCCCC)CCCCC)C(=O)SCCCN(C)C`, the pKa in series [1] was found to be 6.8. Moreover, the “Bioactivity: percentage” value in the series on Factor VII (dose 0.1 mg/kg) is listed as 14 (0.1 mg/ kg) percentage.
In series [1], `CCCCCC(CCCCC)OC(=O)CCCN(CCCC(=O)OC(CCCCC)CCCCC)C(=O)SCCCN(CC)CC` returned a pKa of 5.56. The “Bioactivity: percentage” value with Factor VII (dose 0.1 mg/kg) is reported as 27 (0.1 mg/ kg) percentage.
In the case of `CCCCCCCC(CCCCCCC)OC(=O)CCCN(CCCC(=O)OC(CCCCCCC)CCCCCCC)C(=O)SCCCN(C)C`, the pKa in series [1] came to 6.38. Also, in the series on Factor VII (dose 0.03 mg/kg), the “Bioactivity: percentage” value is on record as 99 percentage.
The compound `CCCCCCCC(CCCCCCC)OC(=O)CCCN(CCCC(=O)OC(CCCCCCC)CCCCCCC)C(=O)SCCCN(CC)CC` gave a pKa in series [1] of 6.31. In addition, the “Bioactivity: percentage” value with Factor VII (dose 0.03 mg/kg) was found to be 97 percentage.
The like results for `CCC/C=C/CCC(CC/C=C/CCC)OC(=O)CCCN(CCCCCC(=O)OC/C=C\CCCCCC)C(=O)SCCN(C)C` were, in that order, 5.93 and 75 percentage.
For `CCCCCC/C=C\COC(=O)CCCCCN(CCCC(=O)OC(CCCCCCCC)CCCCCCCC)C(=O)SCCN(C)C`, in that order: 5.38 and 81 percentage.
The like results for `CCCCCC/C=C\COC(=O)CCCCCN(CCCCC(=O)OC(CCCCCCC)CCCCCCC)C(=O)SCCN(C)C` were, in that order, 5.9 and 90 percentage.
`CCCCCC/C=C\COC(=O)CCCCCCCN(CCCC(=O)OC(CCCCCC)CCCCCC)C(=O)SCCN(C)C`: in series [1], the pKa was 5.61. For the same compound, the “Bioactivity: percentage” value with Factor VII (dose 0.03 mg/kg) came out at 63 percentage.
Turning to `CCCCCC/C=C\COC(=O)CCCCCCCN(CCCC(=O)OC(CCCCCCC)CCCCCCC)C(=O)SCCN(C)C`, the pKa in series [1] is 5.38. Also, the “Bioactivity: percentage” value in the series with Factor VII (dose 0.03 mg/kg) is reported as 73 percentage.
For `CCCCCC/C=C\COC(=O)CCCCCN(CCCCCC(=O)OC(CCCCCCC)CCCCCCC)C(=O)SCCN(C)C`, in that order: 5.93 and 91 percentage.
For `CCC/C=C/CCC(CC/C=C/CCC)OC(=O)CCCCCN(CCCCCC(=O)OC/C=C\CCCCCC)C(=O)SCCN(C)C`, in that order: 5.94 and 82 percentage.
In series [1], `CCCCCC/C=C\COC(=O)CCCCCN(CCCCCC(=O)OC(CCCCCCCC)CCCCCCCC)C(=O)SCCN(C)C` displayed a pKa of 5.82. Besides, the “Bioactivity: percentage” value in the series with Factor VII (dose 0.03 mg/kg) stood at 85 percentage.
`CCCCCC/C=C\COC(=O)CCCCCN(CCCCCC(=O)OC(CCCCCCC)CCCCCCC)C(=O)SCCCN(CC)CC` displayed a pKa in series [1] of 6.45. The “Bioactivity: percentage” value with Factor VII (dose 0.03 mg/kg) is given as 95 percentage.
In series [1], `CCCCCC/C=C\COC(=O)CCCCCCN(CCCCCCC(=O)OC(CCCCCC)CCCCCC)C(=O)SCCN(C)C` gave a pKa of 5.67. In the series on Factor VII (dose 0.03 mg/kg), the “Bioactivity: percentage” value was 66 percentage.
For `CCC/C=C/CCC(CC/C=C/CCC)OC(=O)CCCCCCN(CCCCCCC(=O)OC/C=C\CCCCCC)C(=O)SCCN(C)C`, in that order: 5.68 and 67 percentage.
Take `CCCCCC/C=C\COC(=O)CCCCCCCN(CCCCCCCC(=O)OC(CCCC)CCCC)C(=O)SCCN(C)C`: in series [1], the pKa turned out to be 6.22. Besides, the “Bioactivity: percentage” value in the series on Factor VII (dose 0.03 mg/kg) is 71 percentage.
The like results for `CCCCCC/C=C\COC(=O)CCCCCCCN(CCCCCCCC(=O)OC(CCCCC)CCCCC)C(=O)SCCN(C)C` were, in that order, 5.81 and 68 percentage.
Turning to `CCCCCCC(CCCCC)OC(=O)CCCN(CCCCC(=O)OC(CCCCC)CCCCC)C(=O)SCCN(C)C` (centres unmarked) [ATX-0085], the “Bioactivity: percentage” value with Factor VII (dose 0.03 mg/kg) turned out to be 56 percentage.
